# Experimental data: ChEMBL document CHEMBL1201862, “PubChem BioAssay data set” (2004)
# Activity calls are given as the source filed them.
# What was measured:
# [1] = molecular target: Insulin-like growth factor 1 receptor (Homo sapiens, UniProt P08069); assay: Navigating the Kinome. Panel member name: IGF1R; format: functional
# [2] = molecular target: Dual specificity mitogen-activated protein kinase kinase 2 (Homo sapiens, UniProt P36507); assay: Navigating the Kinome. Panel member name: MAP2K2; format: functional
# [3] = molecular target: Mitogen-activated protein kinase 8 (Homo sapiens, UniProt P45983); format: functional;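 also: value comes from one member of a kinome-wide kinase profiling panel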
# [4] = molecular target: Tyrosine-protein kinase receptor TYRO3 (Homo sapiens, UniProt Q06418); format: functional;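 also: TYRO3 value obtained as one member of a kinome-wide profiling panel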
# Chain of Tyrosine-protein kinase receptor TYRO3 (Q06418 whole entry): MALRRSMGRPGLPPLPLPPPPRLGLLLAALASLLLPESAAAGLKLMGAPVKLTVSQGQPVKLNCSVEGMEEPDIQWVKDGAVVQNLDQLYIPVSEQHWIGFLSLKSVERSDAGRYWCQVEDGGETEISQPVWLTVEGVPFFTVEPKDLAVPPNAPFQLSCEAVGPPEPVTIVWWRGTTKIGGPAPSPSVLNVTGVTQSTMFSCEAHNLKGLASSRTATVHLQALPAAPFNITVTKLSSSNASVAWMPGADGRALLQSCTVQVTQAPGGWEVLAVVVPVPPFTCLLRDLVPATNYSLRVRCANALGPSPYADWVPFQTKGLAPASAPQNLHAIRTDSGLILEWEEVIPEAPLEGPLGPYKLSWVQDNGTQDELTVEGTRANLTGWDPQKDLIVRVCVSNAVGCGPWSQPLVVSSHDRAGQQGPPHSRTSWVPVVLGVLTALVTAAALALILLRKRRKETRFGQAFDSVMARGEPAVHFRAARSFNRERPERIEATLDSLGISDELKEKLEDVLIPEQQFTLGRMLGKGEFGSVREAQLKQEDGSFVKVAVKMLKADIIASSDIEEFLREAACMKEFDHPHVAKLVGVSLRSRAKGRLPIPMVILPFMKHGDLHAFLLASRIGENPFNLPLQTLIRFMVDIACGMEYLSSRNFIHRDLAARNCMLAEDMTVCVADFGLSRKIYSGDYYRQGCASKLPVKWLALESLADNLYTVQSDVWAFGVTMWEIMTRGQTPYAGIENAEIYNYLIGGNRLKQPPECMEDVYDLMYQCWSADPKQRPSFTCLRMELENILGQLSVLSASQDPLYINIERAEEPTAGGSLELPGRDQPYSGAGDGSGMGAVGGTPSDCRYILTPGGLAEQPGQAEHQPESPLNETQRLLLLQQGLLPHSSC
# [5] = molecular target: Mitogen-activated protein kinase kinase kinase kinase 2 (Homo sapiens, UniProt Q12851); format: functional;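 also: measured as one member of a kinome-wide kinase panel, with MAP4K2 as the panel entry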
# Activated CDC42 kinase 1 = Activated CDC42 kinase 1 (Homo sapiens, UniProt Q07912); assay: Navigating the Kinome. Panel member name: ACK1; format: functional
# [6] = molecular target: G protein-coupled receptor kinase 5 (Homo sapiens, UniProt P34947); assay: Navigating the Kinome. Panel member name: GPRK5; format: functional
# Aurora kinase B = Aurora kinase B (Homo sapiens, UniProt Q96GD4); format: functional
# [7] = molecular target: Macrophage colony-stimulating factor 1 receptor (Homo sapiens, UniProt P07333); format: functional;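 also: value comes from the Navigating the Kinome screening panel, CSF1R member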
# [8] = molecular target: Tyrosine-protein kinase JAK3 (Homo sapiens, UniProt P52333); format: functional
# [9] = molecular target: Leucine-rich repeat serine/threonine-protein kinase 2 (Homo sapiens, UniProt Q5S007); format: functional;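 also: value from a broad kinome-wide panel profiling study in which LRRK2 was one of the kinases tested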
# [10] = molecular target: Dual specificity protein kinase CLK4 (Homo sapiens, UniProt Q9HAZ1); format: functional
# [11] = molecular target: Cyclin-dependent kinase 8 (Homo sapiens, UniProt P49336); assay: Navigating the Kinome. Panel member name: CDK8; format: functional
# [12] = molecular target: Dual specificity tyrosine-phosphorylation-regulated kinase 1A (Homo sapiens, UniProt Q13627); format: functional;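 also: measured against DYRK1A as one member of a broad kinome profiling panel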
# [13] = molecular target: Serine/threonine-protein kinase Nek2 (Homo sapiens, UniProt P51955); format: functional
# Aurora kinase A = Aurora kinase A (Homo sapiens, UniProt O14965); format: functional;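 also: value from the Navigating the Kinome kinase panel profiling, panel entry STK6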
# [14] = molecular target: Rho-associated protein kinase 1 (Homo sapiens, UniProt Q13464); format: functional;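 also: measured within a broad kinome-wide panel profiling many kinases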
# [15] = molecular target: Hepatocyte growth factor receptor (Homo sapiens, UniProt P08581); format: functional;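 also: kinase panel profiling across the kinome, with MET as the panel member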
# [16] = molecular target: 5'-AMP-activated protein kinase catalytic subunit alpha-1 (Homo sapiens, UniProt Q13131); format: functional
# [17] = molecular target: ALK tyrosine kinase receptor (Homo sapiens, UniProt Q9UM73); format: functional;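 also: ALK tested as one member of a kinase panel screen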
# [18] = molecular target: Tyrosine-protein kinase Lck (Homo sapiens, UniProt P06239); format: functional;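 also: lck was assayed as one member of a kinase panel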
# [19] = molecular target: Tyrosine-protein kinase Fyn (Homo sapiens, UniProt P06241); format: functional
# [20] = molecular target: Cyclin-dependent kinase 5 (Homo sapiens, UniProt Q00535); format: functional;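 also: CDK5 measured as one member of a kinase profiling panel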
# [21] = molecular target: Leukocyte tyrosine kinase receptor (Homo sapiens, UniProt P29376); assay: Navigating the Kinome. Panel member name: LTK; format: functional
# [22] = molecular target: Dual specificity tyrosine-phosphorylation-regulated kinase 1B (Homo sapiens, UniProt Q9Y463); assay: Navigating the Kinome. Panel member name: DYRK1B; format: functional
# Chain of Dual specificity tyrosine-phosphorylation-regulated kinase 1B (Q9Y463 whole entry, the tested form may be a part): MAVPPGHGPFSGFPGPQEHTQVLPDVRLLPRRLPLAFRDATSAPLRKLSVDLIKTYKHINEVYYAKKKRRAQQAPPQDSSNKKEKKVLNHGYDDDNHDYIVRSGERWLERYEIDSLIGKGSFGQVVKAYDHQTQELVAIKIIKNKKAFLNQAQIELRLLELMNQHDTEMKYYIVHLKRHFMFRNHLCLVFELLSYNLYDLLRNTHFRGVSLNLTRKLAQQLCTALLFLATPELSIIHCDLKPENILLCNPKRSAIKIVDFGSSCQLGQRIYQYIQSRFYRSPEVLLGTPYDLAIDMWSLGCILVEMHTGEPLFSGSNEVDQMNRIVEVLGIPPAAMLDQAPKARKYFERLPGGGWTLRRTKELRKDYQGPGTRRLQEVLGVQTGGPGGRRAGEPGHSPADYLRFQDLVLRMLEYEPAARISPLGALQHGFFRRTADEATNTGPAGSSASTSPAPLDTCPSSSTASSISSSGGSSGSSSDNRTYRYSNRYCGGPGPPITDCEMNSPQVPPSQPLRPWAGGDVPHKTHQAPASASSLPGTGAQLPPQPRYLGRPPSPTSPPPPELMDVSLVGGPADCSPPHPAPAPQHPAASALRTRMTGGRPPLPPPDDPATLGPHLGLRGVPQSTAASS
# LIM domain kinase 1 = LIM domain kinase 1 (Homo sapiens, UniProt P53667); assay: Navigating the Kinome. Panel member name: LIMK1; format: functional
# [23] = molecular target: Serine/threonine-protein kinase TAO1 (Homo sapiens, UniProt Q7L7X3); format: functional
# [24] = molecular target: Receptor-type tyrosine-protein kinase FLT3 (Homo sapiens, UniProt P36888); format: functional;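 also: FLT3 was tested as one member of a kinome-wide kinase panel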
# [25] = molecular target: Platelet-derived growth factor receptor beta (Homo sapiens, UniProt P09619); format: functional;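 also: value comes from a kinome panel, with PDGFRB tested as one panel member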
# Chain of Platelet-derived growth factor receptor beta (P09619 whole entry): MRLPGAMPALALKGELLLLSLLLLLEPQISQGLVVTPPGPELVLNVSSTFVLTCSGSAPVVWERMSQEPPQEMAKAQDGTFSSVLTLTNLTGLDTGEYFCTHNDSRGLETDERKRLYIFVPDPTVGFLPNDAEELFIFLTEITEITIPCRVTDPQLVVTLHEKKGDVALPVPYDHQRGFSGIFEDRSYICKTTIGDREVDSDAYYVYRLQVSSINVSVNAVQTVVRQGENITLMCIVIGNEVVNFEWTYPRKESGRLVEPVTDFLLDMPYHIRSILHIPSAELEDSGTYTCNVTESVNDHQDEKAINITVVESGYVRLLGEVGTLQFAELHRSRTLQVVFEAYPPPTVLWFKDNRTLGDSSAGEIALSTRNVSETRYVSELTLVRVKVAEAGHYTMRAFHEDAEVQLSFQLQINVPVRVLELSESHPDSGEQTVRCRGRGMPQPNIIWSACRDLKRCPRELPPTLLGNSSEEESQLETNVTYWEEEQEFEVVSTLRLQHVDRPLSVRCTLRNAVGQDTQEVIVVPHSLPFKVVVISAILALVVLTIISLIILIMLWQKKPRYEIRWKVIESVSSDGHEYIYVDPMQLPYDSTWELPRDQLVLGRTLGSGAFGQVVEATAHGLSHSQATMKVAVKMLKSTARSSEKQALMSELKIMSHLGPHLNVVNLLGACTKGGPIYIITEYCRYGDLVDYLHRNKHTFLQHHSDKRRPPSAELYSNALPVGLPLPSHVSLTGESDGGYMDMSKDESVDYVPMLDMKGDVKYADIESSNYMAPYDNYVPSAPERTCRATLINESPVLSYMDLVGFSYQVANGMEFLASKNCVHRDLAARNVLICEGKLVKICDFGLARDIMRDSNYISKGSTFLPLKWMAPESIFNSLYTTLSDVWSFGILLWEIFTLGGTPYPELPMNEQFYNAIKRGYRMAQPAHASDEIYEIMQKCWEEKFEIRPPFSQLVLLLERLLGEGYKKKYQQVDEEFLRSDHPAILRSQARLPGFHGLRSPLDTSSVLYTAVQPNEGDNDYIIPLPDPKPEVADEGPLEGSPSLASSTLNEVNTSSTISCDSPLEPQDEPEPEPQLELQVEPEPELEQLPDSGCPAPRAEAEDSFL
# [26] = molecular target: BDNF/NT-3 growth factors receptor (Homo sapiens, UniProt Q16620); format: functional;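 also: NTRK2 measured as one member of a broad kinome-wide kinase profiling panel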
# [27] = molecular target: Proto-oncogene tyrosine-protein kinase receptor Ret (Homo sapiens, UniProt P07949); format: functional;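 also: measured within a kinome-wide profiling panel, RET as the panel member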
# Focal adhesion kinase 1 = Focal adhesion kinase 1 (Homo sapiens, UniProt Q05397); format: functional;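 also: measured as one member of a kinome panel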
# [28] = molecular target: Inhibitor of nuclear factor kappa-B kinase subunit epsilon (Homo sapiens, UniProt Q14164); assay: Navigating the Kinome. Panel member name: IKBKE; format: functional
# [29] = molecular target: Cyclin-dependent kinase 7 (Homo sapiens, UniProt P50613); format: functional;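 also: value comes from a kinome-wide kinase profiling panel in which CDK7 is one member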
# [30] = molecular target: Serine/threonine-protein kinase PAK 4 (Homo sapiens, UniProt O96013); format: functional;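 also: value obtained within a kinome profiling panel in which PAK4 was one of the panel members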
# [31] = molecular target: Serine/threonine-protein kinase Chk1 (Homo sapiens, UniProt O14757); format: functional;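 also: measured as one member of a kinome-wide kinase profiling panel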
# [32] = molecular target: Tyrosine-protein kinase JAK2 (Homo sapiens, UniProt O60674); format: functional;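 also: JAK2 tested as one member of a kinase panel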
# [33] = molecular target: T1, Glycogen synthase kinase-3 alpha (Homo sapiens, UniProt P49840); format: functional;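 also: GSK3A result taken from a broad kinome-wide kinase panel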
# T1 sequence (P49840 whole entry): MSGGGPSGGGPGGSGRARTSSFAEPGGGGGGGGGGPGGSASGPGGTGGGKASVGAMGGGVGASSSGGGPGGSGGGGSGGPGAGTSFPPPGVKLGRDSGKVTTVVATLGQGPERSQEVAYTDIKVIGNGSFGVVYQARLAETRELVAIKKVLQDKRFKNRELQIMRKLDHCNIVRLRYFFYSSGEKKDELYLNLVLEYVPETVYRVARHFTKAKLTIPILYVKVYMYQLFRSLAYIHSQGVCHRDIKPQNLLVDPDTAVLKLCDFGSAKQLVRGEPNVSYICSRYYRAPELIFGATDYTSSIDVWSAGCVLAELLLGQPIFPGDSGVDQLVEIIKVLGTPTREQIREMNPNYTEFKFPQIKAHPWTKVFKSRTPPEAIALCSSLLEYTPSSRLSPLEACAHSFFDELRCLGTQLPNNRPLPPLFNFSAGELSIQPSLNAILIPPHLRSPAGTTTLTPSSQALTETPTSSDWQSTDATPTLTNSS
# [34] = molecular target: Cyclin-dependent kinase 9 (Homo sapiens, UniProt P50750); format: functional;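 also: value from the CDK9 entry of a kinome-spanning kinase panel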
# [35] = molecular target: Death-associated protein kinase 3 (Homo sapiens, UniProt O43293); format: functional;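 also: measured as one member of a kinome-wide profiling panel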
# [36] = molecular target: Dual specificity mitogen-activated protein kinase kinase 1 (Homo sapiens, UniProt Q02750); assay: Navigating the Kinome. Panel member name: MAP2K1; format: functional
# [37] = molecular target: Ribosomal protein S6 kinase alpha-3 (Homo sapiens, UniProt P51812); format: functional;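 also: measured within a kinome-wide profiling panel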
# [38] = molecular target: Vascular endothelial growth factor receptor 2 (Homo sapiens, UniProt P35968); format: functional
# [39] = molecular target: Protein kinase C theta type (Homo sapiens, UniProt Q04759); assay: Navigating the Kinome. Panel member name: PRKCQ; format: functional
# [40] = molecular target: cAMP-dependent protein kinase catalytic subunit PRKX (Homo sapiens, UniProt P51817); format: functional
# Chain of cAMP-dependent protein kinase catalytic subunit PRKX (P51817 whole entry, canonical isoform): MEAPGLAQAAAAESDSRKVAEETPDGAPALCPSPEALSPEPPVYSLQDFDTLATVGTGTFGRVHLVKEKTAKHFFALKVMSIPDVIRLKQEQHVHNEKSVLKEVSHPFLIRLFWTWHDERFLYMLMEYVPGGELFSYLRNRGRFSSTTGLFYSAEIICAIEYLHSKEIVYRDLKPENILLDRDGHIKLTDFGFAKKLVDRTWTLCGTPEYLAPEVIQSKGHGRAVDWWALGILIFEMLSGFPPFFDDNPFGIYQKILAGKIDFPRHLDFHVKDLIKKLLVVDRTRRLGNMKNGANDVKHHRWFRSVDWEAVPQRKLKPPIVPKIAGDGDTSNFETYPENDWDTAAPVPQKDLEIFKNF
# [41] = molecular target: Casein kinase I isoform alpha (Homo sapiens, UniProt P48729); format: functional
# Activin receptor type-1 = Activin receptor type-1 (Homo sapiens, UniProt Q04771); assay: Navigating the Kinome. Panel member name: ACVR1; format: functional
# [42] = molecular target: Serine/threonine-protein kinase pim-1 (Homo sapiens, UniProt P11309); format: functional
# [43] = molecular target: DNA dC->dU-editing enzyme APOBEC-3A (Homo sapiens, UniProt P31941); assay: SAR analysis of small molecule inhibitors of APOBEC3A DNA Deaminase via a fluorescence-based single-stranded DNA deaminase assay - Set 2.; format: functional; conditions: read-out: IC50_Mean
# [44] = molecular target: DNA dC->dU-editing enzyme APOBEC-3G (Homo sapiens, UniProt Q9HC16); assay: SAR analysis of small molecule inhibitors of APOBEC3G DNA Deaminase via a fluorescence-based single-stranded DNA deaminase assay - Set 2.; format: functional; conditions: read-out: IC50_Mean
# [45] = THP-1 cell cytotoxicity, cytotoxicity control, set 4 (AID 504911); format: functional; conditions: Mycobacterium tuberculosis
# [46] = Vero cell cytotoxicity, dose response, cytotoxicity control for M. tuberculosis growth inhibitor project, Vero cells, purified and synthesized compounds, set 5 (AID 504909); format: functional; conditions: Mycobacterium tuberculosis
# [47] = Vero cell cytotoxicity, dose response, cytotoxicity control for M. tuberculosis growth inhibitor project, Vero cells, purified and synthesized compounds, set 4 (AID 504854); format: functional; conditions: Mycobacterium tuberculosis
# [48] = molecular target: T2, Multidrug resistance protein CDR2 (Candida albicans (strain SC5314 / ATCC MYA-2876) (Yeast), UniProt P78595); assay: blockers of Nile Red efflux by Candida CDR2 – S. cerevisiae AD1-8u, singleplex, Cherry Pick2 set, dose response (AID 623994); format: functional; conditions: read-out: EC50_MICROM
# T2 sequence (P78595 whole entry): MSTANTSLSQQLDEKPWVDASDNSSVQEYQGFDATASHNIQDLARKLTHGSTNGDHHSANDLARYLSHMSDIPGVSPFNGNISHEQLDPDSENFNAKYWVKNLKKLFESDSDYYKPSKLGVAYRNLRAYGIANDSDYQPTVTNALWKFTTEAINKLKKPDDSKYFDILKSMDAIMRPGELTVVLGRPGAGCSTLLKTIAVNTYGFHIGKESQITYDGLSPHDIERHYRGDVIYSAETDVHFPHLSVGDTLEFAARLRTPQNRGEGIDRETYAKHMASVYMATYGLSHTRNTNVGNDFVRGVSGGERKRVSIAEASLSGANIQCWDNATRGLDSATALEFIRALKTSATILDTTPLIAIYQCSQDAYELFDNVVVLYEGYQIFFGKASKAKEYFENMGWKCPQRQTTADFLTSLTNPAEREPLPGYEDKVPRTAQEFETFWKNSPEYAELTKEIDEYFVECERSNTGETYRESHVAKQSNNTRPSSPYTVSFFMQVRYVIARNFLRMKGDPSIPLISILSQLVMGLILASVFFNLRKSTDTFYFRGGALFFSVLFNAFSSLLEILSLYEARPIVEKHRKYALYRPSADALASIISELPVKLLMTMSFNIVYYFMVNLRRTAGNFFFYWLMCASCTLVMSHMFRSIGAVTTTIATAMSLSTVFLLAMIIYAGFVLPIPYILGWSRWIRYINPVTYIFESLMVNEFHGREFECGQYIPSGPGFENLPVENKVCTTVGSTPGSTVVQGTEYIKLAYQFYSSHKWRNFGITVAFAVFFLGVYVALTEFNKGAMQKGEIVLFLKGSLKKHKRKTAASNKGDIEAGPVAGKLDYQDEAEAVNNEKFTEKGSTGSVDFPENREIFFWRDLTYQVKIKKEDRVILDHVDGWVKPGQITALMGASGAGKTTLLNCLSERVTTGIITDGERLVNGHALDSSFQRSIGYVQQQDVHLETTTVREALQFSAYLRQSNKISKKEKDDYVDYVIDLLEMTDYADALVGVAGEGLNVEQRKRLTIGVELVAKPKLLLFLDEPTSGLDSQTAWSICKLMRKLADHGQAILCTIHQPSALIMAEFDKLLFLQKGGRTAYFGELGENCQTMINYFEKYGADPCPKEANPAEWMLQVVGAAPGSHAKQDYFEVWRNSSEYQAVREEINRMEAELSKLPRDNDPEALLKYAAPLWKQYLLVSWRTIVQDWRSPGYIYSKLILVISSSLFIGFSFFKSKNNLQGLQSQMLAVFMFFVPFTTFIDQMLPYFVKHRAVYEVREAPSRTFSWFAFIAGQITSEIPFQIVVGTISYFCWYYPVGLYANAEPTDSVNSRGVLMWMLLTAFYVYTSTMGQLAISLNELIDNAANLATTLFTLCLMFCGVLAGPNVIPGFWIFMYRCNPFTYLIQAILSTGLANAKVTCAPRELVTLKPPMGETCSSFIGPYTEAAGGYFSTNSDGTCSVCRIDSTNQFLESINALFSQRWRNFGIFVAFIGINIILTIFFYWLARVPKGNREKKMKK
# [49] = molecular target: T2, Multidrug resistance protein CDR2; assay: inhibition of Nile Red efflux via Candida CDR2 – S. cerevisiae AD1-8u, singleplex, Cherry Pick1 hits, dose response (AID 588604); format: functional
# [50] = molecular target: T3, Ubiquitin-conjugating enzyme E2 N (Homo sapiens, UniProt P61088); format: functional;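 also: Dose-response confirmation in a TR-FRET assay detecting UBC13-driven polyubiquitin chain formation, inhibition measured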
# T3 sequence (P61088 whole entry): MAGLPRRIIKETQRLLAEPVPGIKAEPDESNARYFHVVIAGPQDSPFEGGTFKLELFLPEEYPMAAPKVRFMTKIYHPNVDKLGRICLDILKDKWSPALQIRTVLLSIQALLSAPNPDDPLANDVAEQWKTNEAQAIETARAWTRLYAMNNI
# [51] = molecular target: T4, DNA repair protein RAD52 homolog (Homo sapiens, UniProt P43351); format: functional, biochemical
# T4 sequence (P43351 whole entry): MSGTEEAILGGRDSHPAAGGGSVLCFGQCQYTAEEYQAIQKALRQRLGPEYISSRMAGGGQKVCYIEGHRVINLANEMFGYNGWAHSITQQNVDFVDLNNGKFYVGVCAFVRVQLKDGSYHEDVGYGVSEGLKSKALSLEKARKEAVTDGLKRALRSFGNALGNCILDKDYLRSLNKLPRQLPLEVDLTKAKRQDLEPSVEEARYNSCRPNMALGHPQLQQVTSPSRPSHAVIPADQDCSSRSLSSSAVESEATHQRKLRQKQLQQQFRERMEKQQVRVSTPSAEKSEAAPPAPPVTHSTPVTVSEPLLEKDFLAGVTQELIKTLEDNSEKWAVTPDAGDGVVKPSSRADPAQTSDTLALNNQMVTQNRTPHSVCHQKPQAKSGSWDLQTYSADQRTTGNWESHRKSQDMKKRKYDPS
# [52] = molecular target: Cyclin-dependent kinase 5/CDK5 activator 1 (Homo sapiens, UniProt Q00535); assay: inhibitors of human CDK5 activity – biochemical, microfluidic mobility shift, dry powder, set 2, selectivity assay for GSK3beta inhibitor project, dose response (AID 623979); format: functional
# [53] = molecular target: T1, Glycogen synthase kinase-3 alpha; assay: GSK3A enzyme blockers, homolog specificity check – biochemical, microfluidics, dry powder samples, set 2, selectivity assay for GSK3beta inhibitor project, dose response (AID 623978); format: functional
# [54] = molecular target: Glycogen synthase kinase-3 beta (Homo sapiens, UniProt P49841); assay: inhibition of human GSK3B activity – biochemical, microfluidics, dry powder samples, set 2, dose response (AID 623989); format: functional
# [55] = molecular target: Neuropeptides B/W receptor type 1 (Homo sapiens, UniProt P48145); assay: human NPBW1 receptor blockade, IC50 – cell-based, fluorescence, dose response, set 6, late-stage follow-up (AID 588583); format: functional
# [56] = molecular target: Melanin-concentrating hormone receptor 1 (Homo sapiens, UniProt Q99705); assay: Late-stage fluorescence-based counterscreen for antagonists of the G-protein coupled receptor 7 (GPR7): cell-based dose response assay to identify antagonists of the melanin-concentrating hormone receptor 1 (MCHR1) Set 6.; format: functional
structure (smiles),measurement,setting,value
NC(=O)c1ccc2nc(-c3ccc([N+](=O)[O-])o3)cn2c1,Ki,[1],> 2510 nM (inactive)
same,Ki,[2],1000 nM (active)
same,Ki,[3],1580 nM (active)
same,Ki,[4],100 nM (active)
same,Ki,[5],251 nM (active)
same,Ki,Activated CDC42 kinase 1,251 nM (active)
same,Ki,[6],158 nM (active)
same,Ki,Aurora kinase B,251 nM (active)
same,Ki,[7],1260 nM (active)
same,Ki,[8],794 nM (active)
same,Ki,[9],126 nM (active)
same,Ki,[10],20 nM (active)
same,Ki,[11],126 nM (active)
same,Ki,[12],31.6 nM (active)
same,Ki,[13],63.1 nM (active)
same,Ki,Aurora kinase A,126 nM (active)
same,Ki,[14],1000 nM (active)
same,Ki,[15],50.1 nM (active)
same,Ki,[16],158 nM (active)
same,Ki,[17],631 nM (active)
same,Ki,[18],> 6310 nM (inactive)
same,Ki,[19],2000 nM (active)
same,Ki,[20],126 nM (active)
same,Ki,[21],79.4 nM (active)
same,Ki,[22],79.4 nM (active)
same,Ki,LIM domain kinase 1,158 nM (active)
same,Ki,[23],1260 nM (active)
same,Ki,[24],2510 nM (active)
same,Ki,[25],1000 nM (active)
same,Ki,[26],> 3980 nM (inactive)
same,Ki,[27],316 nM (active)
same,Ki,Focal adhesion kinase 1,316 nM (active)
same,Ki,[28],126 nM (active)
same,Ki,[29],631 nM (active)
same,Ki,[30],794 nM (active)
same,Ki,[31],50.1 nM (active)
same,Ki,[32],1260 nM (active)
same,Ki,[33],1000 nM (active)
same,Ki,[34],39.8 nM (active)
same,Ki,[35],251 nM (active)
same,Ki,[36],1580 nM (active)
same,Ki,[37],631 nM (active)
same,Ki,[38],> 2510 nM (inactive)
same,Ki,[39],251 nM (active)
same,Ki,[40],631 nM (active)
same,Ki,[41],126 nM (active)
same,Ki,Activin receptor type-1,200 nM (active)
same,Ki,[42],631 nM (active)
CCc1nc2sc3c(c2c2nnc(SC)n12)CCCC3,IC50,[43],> 99000 nM (inactive)
same,IC50,[44],> 99000 nM (inactive)
Oc1nc(SCc2ccccc2Cl)nc2c1CCCC2,CC50,[45],> 100000 nM (active)
same,CC50,[46],> 100000 nM (active)
same,CC50,[47],> 100000 nM (active)
NC1=NC[C@@H](Cc2ccc(O)cc2)N1CCCCC1CCCCC1,EC50,[48],16300 nM (active)
same,EC50,[49],27300 nM (active)
same,IC50,[50],> 20000 nM (inactive)
COc1cccc(/C=C2/Sc3ccc(C(=O)NCCCN4CCCC4)cc3NC2=O)c1,AC50,[51],4470 nM (active)
same,AC50,[52],7910 nM (active)
same,AC50,[53],38900 nM (active)
same,AC50,[54],4460 nM (active)
O=c1c(-c2ccc(F)cc2)c(Br)cnn1Cc1cccc2ccccc12,IC50,[55],2240 nM (active)
same,IC50,[56],2240 nM (active)
